Reference: patent US7488799B2, “Prostaglandin receptor protein” (Aventis Pharmaceuticals Inc., priority 2003, dated 2009)
pEC50: −log10 of the molar value.

Experiments:
[1] = tested on: parental HEK293-Gα16 cell line; assay: SPA cAMP assay, parental cell line; format: cell-based; details: parental HEK293-Gα16 cells, 15 minutes stimulation
Experimental: (§1) An additional functional characterization of the newly cloned guinea pig DP receptor used the natural signaling pathway for DP, the stimulation of cAMP production by adenylate cyclase. Transfected or non-transfected cells were plated at 40,000 cells per well of a 96 well plate. After overnight incubation at 37° C., medium was replaced and cells were stimulated with defined concentrations of PGD2 for 15 minutes. The accumulation of cAMP was measured in the stimulated cells using the cAMP SPA Direct Screening Assay System (Amersham) according to procedures specified by the manufacturer.

[2] = tested on: recombinant guinea pig DP receptor; assay: SPA cAMP assay, guinea pig DP cell line; format: cell-based, guinea pig (Cavia porcellus); details: 15 minutes stimulation, FIG. 7, read-out: EC50, cAMP accumulation
Experimental: as §1

[3] = tested on: parental HEK293-Gα16 cell line; assay: Intracellular calcium assay (FLIPR), parental cell line without transfected DP receptor; format: cell-based; details: parental HEK293-Gα16 cells, no transfected DP receptor
Description: The cDNA encoding human Gα16 was cloned as described (Amatruda et al., 1991). Briefly, total RNA from HL-60 human promyelocytic leukemia cells was isolated and used as a template for PCR-mediated synthesis of cDNA encoding Gα16. The resulting PCR product was cloned into the expression vector pHook-3 (Invitrogen), which also coexpresses a single-chain antibody (sFv) to allow convenient enrichment of transfected cells using a panning protocol with hapten-coated magnetobeads (Chesnut et al., 1996). HEK293 cells were transfected with the constructed plasmid (pGα16), selected with Zeocin and positive clones enriched using magnetobeads according to protocols supplied by the vendor. […]
(§2) For functional characterization the newly cloned guinea pig DP receptor was stably transfected into HEK293-Gα16 cells and for comparison an equivalent cell line was generated with the mouse DP receptor. Both DP receptor-expressing cell lines, as well as the parental cell line not expressing any transfected DP receptor, were evaluated in a second messenger assay using the force coupling of the receptor to Gα16 to elicit a calcium response. […] Intracellular calcium was measured following PGD2 or buffer stimulation of […] loaded cells using a FLIPR instrument (Molecular Devices Corp.).

mouse DP receptor [4] = target: T1, mouse DP receptor (Mus musculus, UniProt P70263); assay: Intracellular calcium assay (FLIPR), mouse DP receptor in HEK293-Gα16 cells; format: cell-based; details: mouse DP-expressing HEK293-Gα16 cells, FIG. 6, read-out: EC50, intracellular calcium mobilization
T1 construct: A full length cDNA for the mouse DP receptor was obtained by PCR; expressed in transfected cells
T1 sequence (P70263 1-357): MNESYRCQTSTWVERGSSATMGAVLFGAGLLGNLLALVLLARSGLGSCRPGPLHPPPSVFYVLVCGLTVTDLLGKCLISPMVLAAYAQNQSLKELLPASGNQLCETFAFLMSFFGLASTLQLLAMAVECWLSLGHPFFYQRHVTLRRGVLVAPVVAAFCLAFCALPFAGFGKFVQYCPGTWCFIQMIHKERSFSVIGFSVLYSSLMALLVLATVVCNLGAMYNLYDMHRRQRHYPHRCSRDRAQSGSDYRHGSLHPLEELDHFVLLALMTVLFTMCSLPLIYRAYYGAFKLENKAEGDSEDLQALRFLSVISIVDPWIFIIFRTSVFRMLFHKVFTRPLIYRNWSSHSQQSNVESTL
Experimental: The pEAK10-gpDP and pEAK10-mDP vectors were transfected into the HEK293-Gα16 cell line using Lipofectamine 2000 (Gibco) as described by the manufacturer. Transfected cells were cultured under selection with 1 ug/ml puromycin and 250 ug/ml zeocin for 5 weeks. Expression of the DP receptor was monitored in the transfected cell population by measuring the release of intracellular calcium in response to PGD2 stimulation.
as §2, with “response. Intracellular calcium measurements were performed using non-transfected HEK293-Gα16 cells or cells transfected with either the pEAK10-gpDP or the pEAK10-mDP expression vectors. Transfected and non-transfected cells were plated in 384 well plates at 10,000 cells per well. Cells were washed three times with calcium assay buffer.” for “response.”

[5] = tested on: recombinant guinea pig DP receptor; assay: Intracellular calcium assay (FLIPR), guinea pig DP receptor in HEK293-Gα16 cells; format: cell-based, guinea pig (Cavia porcellus); details: guinea pig DP-expressing HEK293-Gα16 cells, FIG. 6, read-out: EC50, intracellular calcium mobilization
Experimental: For functional characterization the newly cloned guinea pig DP receptor was stably transfected into HEK293-Gα16 cells and for comparison an equivalent cell line was generated with the mouse DP receptor. Both DP receptor-expressing cell lines, as well as the parental cell line not expressing any transfected DP receptor, were evaluated in a second messenger assay using the force coupling of the receptor to Gα16 to elicit a calcium response. Intracellular calcium measurements were performed using non-transfected HEK293-Gα16 cells or cells transfected with either the pEAK10-gpDP or the pEAK10-mDP expression vectors. Transfected and non-transfected cells were plated in 384 well plates at 10,000 cells per well. Cells were washed three times with calcium assay buffer. Cells were then incubated with 4 μM of the calcium loading dye Fura-4/AM (Molecular Probes) at 37° C. for x min. Unincorporated fura-4/AM was removed by three further washes with calcium assay buffer. Intracellular calcium was measured following PGD2 or buffer stimulation of Fura-4/AM loaded cells using a FLIPR instrument (Molecular Devices Corp.).

mouse DP receptor [6] = target: T1, mouse DP receptor; assay: SPA cAMP assay, mouse DP cell line; format: cell-based; details: 15 minutes stimulation, FIG. 7, read-out: EC50, cAMP accumulation

CCCCC[C@H](O)/C=C/[C@H]1C(=O)C[C@H](O)[C@@H]1C/C=C\CCCC(=O)O [PGD2, Prostaglandin D2] was tested, and the “intracellular cAMP response to stimulation” value [1] was “did not show an increase in intracellular cAMP”, the pEC50 [2] was 9.10 and the “PGD2 concentration at which a calcium response is seen” value [3] was “above 10 μM”. The pEC50 (mouse DP receptor [4]) was 7.74, the pEC50 [5] was 8.85 and the pEC50 (mouse DP receptor [6]) was 9.30.
